From article PMC9325671, “Targeting LIPA independent of its lipase activity is a therapeutic strategy in solid tumors via induction of endoplasmic reticulum stress” (Nature Cancer, 2022)

Target: T1, lysosomal acid lipase (LAL, LIPA) (Homo sapiens, UniProt P38571)
T1 construct: endogenous LAL in SUM-159 cells (CETSA); WT-LIPA reconstituted in LIPA KO cells (pulldown)
T1 sequence (P38571 77-399): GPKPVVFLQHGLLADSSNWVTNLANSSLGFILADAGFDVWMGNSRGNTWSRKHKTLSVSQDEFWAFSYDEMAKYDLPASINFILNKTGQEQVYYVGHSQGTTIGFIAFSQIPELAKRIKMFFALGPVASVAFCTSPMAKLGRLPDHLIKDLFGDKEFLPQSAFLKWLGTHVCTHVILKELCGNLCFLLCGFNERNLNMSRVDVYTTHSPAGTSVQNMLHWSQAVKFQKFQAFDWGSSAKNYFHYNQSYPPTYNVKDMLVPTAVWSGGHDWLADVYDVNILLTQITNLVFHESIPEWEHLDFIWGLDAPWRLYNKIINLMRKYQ
Assay: cellular thermal shift assay ([…] ERX-41) in SUM-159 cells; pulldown from lysates with biotinylated ERX-41
Assay type: cell-based

CC(C)COc1cc(C(=O)Nc2ccc(C(=O)N[C@H]3CC[C@H](C)CC3)cc2OCC(C)C)ccc1NC(=O)c1ccc([N+](=O)[O-])c(OCCO)c1 [ERX-41]
cellular thermal shift assay (10 uM ERX-41) in SUM-159 cells; pulldown from lysa: ERX-41 was able to stabilize LAL within the cell and shifted thermal sensitivity, suggesting that ERX-41 binds to LAL
